Article PMC11233931, “Remodeling tumor‐associated macrophage for anti‐cancer effects by rational design of irreversible inhibition of mitogen‐activated protein kinase‐activated protein kinase 2” (MedComm, 2024)

Experiments:
Assay in all cases: Eurofins kinase selectivity profile against 380 other human recombinant kinases (Table S2)
Format in all cases: biochemical
[1] = target: T1, 380 human recombinant protein kinases (Homo sapiens, UniProt Q13043); conditions: MST1(h), read-out: Inhibition rate
T1 construct: purchased Eurofins (Celle Lévescault)
T1 sequence (Q13043 1-487): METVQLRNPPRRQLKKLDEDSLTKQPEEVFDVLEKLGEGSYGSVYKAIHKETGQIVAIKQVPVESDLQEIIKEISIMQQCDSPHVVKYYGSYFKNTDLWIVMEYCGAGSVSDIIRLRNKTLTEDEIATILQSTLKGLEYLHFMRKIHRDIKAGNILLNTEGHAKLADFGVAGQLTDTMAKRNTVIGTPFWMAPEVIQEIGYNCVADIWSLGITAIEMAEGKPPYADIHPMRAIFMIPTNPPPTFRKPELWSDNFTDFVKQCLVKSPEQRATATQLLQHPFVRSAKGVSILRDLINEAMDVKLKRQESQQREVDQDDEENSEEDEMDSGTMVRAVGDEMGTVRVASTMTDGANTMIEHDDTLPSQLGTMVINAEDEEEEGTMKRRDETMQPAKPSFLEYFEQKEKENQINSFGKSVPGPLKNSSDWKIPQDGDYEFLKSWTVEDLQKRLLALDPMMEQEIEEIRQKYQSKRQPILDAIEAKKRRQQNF
Procedure, shortened: (§1)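 Values come from a contract kinase-profiling service that tested the compound at multiple concentrations across 380 recombinant human kinases, as an off-target check against the MK2 activity.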

[2] = target: T2, 380 human recombinant protein kinases (Homo sapiens, UniProt P00533); conditions: EGFR(h), read-out: Inhibition rate
T2 construct: purchased Eurofins (Celle Lévescault)
Procedure, shortened: as §1

[3] = target: T3, 380 human recombinant protein kinases (Homo sapiens, UniProt O00141); conditions: SGK(h), read-out: Inhibition rate (%)
T3 construct: purchased Eurofins (Celle Lévescault)
T3 sequence (O00141 1-431): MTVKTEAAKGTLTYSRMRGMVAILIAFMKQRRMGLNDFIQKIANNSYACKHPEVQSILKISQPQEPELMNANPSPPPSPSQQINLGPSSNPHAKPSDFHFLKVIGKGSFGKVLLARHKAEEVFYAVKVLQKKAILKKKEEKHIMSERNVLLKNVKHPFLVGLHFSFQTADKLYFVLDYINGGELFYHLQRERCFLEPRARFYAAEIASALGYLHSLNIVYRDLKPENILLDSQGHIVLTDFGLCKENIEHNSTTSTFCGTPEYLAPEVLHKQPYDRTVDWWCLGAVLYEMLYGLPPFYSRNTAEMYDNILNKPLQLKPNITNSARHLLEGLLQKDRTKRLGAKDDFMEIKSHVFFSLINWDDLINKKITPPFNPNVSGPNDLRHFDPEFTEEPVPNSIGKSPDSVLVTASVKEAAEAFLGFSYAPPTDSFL
Procedure, shortened: as §1

[4] = target: T4, 380 human recombinant protein kinases (Homo sapiens, UniProt Q09013); conditions: DMPK(h), read-out: Inhibition rate
T4 construct: purchased Eurofins (Celle Lévescault)
T4 sequence (Q09013 1-629): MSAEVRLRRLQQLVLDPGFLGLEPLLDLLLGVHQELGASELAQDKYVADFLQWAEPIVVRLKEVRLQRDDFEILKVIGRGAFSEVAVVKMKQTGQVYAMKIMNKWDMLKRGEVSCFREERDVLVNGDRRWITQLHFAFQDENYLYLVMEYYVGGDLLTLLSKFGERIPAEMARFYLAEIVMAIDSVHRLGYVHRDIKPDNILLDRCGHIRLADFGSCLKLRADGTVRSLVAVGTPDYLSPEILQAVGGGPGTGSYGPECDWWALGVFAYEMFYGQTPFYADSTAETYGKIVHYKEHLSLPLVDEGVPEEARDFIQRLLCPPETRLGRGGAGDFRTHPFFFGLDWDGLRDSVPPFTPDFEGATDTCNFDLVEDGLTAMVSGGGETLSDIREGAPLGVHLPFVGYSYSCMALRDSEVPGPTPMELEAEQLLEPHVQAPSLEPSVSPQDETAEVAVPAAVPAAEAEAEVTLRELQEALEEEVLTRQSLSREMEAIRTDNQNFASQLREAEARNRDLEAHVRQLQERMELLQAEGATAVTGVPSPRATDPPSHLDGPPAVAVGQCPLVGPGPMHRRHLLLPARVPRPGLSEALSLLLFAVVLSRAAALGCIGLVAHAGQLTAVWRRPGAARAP
Procedure, shortened: as §1

[5] = target: T5, 380 human recombinant protein kinases (Homo sapiens, UniProt Q15303); conditions: ErbB4(h), read-out: Inhibition rate
T5 construct: purchased Eurofins (Celle Lévescault)
Procedure, shortened: as §1

[6] = target: T6, 380 human recombinant protein kinases (Homo sapiens, UniProt Q9NWZ3); conditions: IRAK4(h), read-out: Inhibition rate
T6 construct: purchased Eurofins (Celle Lévescault)
T6 sequence (Q9NWZ3 1-460): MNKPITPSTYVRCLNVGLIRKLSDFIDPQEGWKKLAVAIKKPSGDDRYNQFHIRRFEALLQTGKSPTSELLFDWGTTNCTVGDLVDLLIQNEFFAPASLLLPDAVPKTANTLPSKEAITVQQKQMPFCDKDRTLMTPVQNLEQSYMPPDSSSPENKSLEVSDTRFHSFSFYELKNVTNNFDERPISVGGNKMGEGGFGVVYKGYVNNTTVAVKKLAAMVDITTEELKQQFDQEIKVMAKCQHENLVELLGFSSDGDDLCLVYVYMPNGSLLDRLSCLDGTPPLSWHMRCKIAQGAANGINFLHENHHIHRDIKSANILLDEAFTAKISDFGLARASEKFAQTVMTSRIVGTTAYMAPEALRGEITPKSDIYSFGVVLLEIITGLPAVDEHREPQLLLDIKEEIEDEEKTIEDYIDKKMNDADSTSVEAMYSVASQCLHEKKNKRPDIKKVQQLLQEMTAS
Procedure, shortened: as §1

[7] = target: T7, 380 human recombinant protein kinases (Homo sapiens, UniProt P15056); conditions: B-Raf(h), read-out: Inhibition rate
T7 construct: purchased Eurofins (Celle Lévescault)
Procedure, shortened: as §1

T7 sequence (P15056 whole entry): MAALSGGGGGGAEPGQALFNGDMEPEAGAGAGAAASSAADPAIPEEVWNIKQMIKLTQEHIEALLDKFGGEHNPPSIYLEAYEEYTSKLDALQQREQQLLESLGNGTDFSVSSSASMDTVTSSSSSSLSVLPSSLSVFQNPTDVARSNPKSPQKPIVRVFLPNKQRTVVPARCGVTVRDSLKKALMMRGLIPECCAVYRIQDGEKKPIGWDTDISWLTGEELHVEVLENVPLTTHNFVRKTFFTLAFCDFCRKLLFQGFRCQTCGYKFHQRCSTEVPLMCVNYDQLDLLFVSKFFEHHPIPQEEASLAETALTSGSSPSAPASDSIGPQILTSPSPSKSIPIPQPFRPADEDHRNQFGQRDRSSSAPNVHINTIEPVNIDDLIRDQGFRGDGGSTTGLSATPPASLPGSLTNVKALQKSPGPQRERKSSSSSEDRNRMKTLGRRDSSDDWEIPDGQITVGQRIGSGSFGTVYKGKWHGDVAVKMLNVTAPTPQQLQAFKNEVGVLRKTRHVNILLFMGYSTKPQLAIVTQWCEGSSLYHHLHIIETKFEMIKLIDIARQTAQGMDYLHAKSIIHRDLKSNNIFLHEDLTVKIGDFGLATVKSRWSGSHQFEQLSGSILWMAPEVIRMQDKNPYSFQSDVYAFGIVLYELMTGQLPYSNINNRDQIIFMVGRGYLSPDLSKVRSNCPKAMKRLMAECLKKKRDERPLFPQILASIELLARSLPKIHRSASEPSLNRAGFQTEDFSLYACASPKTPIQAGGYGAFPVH
T5 sequence (Q15303 26-1308): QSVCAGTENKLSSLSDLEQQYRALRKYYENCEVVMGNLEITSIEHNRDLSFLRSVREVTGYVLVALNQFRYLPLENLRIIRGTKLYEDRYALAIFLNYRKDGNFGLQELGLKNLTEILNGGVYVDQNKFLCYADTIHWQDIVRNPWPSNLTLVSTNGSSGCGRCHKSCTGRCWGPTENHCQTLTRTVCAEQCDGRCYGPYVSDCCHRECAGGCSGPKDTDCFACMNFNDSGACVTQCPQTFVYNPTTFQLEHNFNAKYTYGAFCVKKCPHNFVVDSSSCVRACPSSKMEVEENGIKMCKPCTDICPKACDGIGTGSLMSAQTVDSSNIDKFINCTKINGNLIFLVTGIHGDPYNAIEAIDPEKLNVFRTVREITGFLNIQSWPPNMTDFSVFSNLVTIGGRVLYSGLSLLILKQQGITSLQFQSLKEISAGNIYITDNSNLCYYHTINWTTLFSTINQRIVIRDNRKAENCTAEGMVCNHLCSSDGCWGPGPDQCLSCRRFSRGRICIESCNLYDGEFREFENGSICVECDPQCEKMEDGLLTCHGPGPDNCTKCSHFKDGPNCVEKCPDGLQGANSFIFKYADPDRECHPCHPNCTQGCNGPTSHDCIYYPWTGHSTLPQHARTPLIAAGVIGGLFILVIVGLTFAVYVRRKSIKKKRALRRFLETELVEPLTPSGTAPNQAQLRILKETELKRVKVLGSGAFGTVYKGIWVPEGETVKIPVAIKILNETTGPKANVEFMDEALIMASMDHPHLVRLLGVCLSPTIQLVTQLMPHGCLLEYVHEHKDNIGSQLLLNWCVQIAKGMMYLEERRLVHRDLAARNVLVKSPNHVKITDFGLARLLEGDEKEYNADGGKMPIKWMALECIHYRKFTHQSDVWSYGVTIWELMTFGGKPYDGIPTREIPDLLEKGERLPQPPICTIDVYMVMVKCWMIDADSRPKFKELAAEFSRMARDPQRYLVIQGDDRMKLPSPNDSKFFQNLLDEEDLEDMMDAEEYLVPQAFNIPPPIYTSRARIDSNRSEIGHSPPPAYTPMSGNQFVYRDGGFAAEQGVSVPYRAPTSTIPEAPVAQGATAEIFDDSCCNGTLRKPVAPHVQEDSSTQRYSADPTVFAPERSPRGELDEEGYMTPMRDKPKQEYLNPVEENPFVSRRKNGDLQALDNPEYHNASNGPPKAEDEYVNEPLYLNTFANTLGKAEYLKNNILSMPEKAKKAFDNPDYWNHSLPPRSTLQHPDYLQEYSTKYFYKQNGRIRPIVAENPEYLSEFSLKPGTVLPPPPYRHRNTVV
T2 sequence (P00533 25-1210): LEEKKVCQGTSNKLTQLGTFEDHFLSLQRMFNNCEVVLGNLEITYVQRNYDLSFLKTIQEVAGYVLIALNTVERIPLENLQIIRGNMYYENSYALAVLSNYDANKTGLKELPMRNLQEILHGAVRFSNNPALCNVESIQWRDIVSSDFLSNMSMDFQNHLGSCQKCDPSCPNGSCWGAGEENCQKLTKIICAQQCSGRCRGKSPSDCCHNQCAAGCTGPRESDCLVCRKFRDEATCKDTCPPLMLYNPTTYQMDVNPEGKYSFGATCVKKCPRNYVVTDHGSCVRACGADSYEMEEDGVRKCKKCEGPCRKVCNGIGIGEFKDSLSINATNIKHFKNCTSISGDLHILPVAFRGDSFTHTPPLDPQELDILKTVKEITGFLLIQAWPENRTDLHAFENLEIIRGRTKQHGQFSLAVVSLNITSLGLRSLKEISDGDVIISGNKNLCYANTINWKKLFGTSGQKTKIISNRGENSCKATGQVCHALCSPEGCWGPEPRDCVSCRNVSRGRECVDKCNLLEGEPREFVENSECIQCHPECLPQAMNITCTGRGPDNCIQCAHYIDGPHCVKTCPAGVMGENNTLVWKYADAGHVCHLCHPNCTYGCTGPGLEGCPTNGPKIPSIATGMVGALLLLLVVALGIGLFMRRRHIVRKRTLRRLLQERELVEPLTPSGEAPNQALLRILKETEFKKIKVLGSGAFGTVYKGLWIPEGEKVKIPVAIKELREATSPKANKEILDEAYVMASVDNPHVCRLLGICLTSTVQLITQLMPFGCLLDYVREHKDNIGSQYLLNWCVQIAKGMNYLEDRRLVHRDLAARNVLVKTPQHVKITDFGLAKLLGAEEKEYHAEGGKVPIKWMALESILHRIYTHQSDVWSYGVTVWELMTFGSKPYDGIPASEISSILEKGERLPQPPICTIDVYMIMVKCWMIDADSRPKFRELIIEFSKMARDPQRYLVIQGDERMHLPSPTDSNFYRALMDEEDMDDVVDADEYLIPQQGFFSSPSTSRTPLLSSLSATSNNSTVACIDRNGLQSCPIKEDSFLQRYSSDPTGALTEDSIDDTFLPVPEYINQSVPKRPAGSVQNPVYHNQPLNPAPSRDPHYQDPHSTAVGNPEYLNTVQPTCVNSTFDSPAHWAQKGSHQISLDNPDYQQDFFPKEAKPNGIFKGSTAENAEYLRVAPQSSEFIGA

In the case of `C=CC(=O)Nc1cc(-c2cc(-c3cc4c([nH]3)CCNC4=O)ccn2)ccc1OC(F)(F)F` [compound 11], the inhibition at 0.01 µM ([1]; 10 nM) is reported as -1%, the inhibition at 0.1 µM ([1]; 100 nM) is reported as -9% and the inhibition at 1 µM ([1]; 1000 nM) is reported as 0%. The inhibition at 0.01 µM ([2]; 10 nM) was 3%, the inhibition at 0.1 µM ([2]; 100 nM) was -20% and the inhibition at 1 µM ([2]; 1000 nM) was -6%. It also gave an inhibition at 0.01 µM ([3]; 10 nM) of 0%, an inhibition at 0.1 µM ([3]; 100 nM) of 7% and an inhibition at 1 µM ([3]; 1000 nM) of 1%. The inhibition at 0.01 µM ([4]; 10 nM) was -5%, the inhibition at 0.1 µM ([4]; 100 nM) was 1% and the inhibition at 1 µM ([4]; 1000 nM) was 7%. It also gave an inhibition at 0.01 µM ([5]; 10 nM) of -15%, an inhibition at 0.1 µM ([5]; 100 nM) of -3% and an inhibition at 1 µM ([5]; 1000 nM) of 6%. It also gave an inhibition at 0.01 µM ([6]; 10 nM) of -4%, an inhibition at 0.1 µM ([6]; 100 nM) of -9% and an inhibition at 1 µM ([6]; 1000 nM) of -2%. It also gave an inhibition at 0.01 µM ([7]; 10 nM) of -7%, an inhibition at 0.1 µM ([7]; 100 nM) of -7% and an inhibition at 1 µM ([7]; 1000 nM) of 4%.
